Measured values from ChEMBL document CHEMBL1147409, “3-(4-Aminobutyn-1-yl)pyridines: binding at alpha 4 beta 2 nicotinic cholinergic receptors” (Bioorg Med Chem Lett, 2004).

Biological target: Neuronal acetylcholine receptor; alpha4/beta2 (Homo sapiens, UniProt P17787+P43681)
Experiment: Binding affinity towards nicotinic acetylcholine receptor alpha4-beta2
Type: protein-complex assay

Neuronal acetylcholine receptor; alpha4/beta2, sequence (P17787 whole entry): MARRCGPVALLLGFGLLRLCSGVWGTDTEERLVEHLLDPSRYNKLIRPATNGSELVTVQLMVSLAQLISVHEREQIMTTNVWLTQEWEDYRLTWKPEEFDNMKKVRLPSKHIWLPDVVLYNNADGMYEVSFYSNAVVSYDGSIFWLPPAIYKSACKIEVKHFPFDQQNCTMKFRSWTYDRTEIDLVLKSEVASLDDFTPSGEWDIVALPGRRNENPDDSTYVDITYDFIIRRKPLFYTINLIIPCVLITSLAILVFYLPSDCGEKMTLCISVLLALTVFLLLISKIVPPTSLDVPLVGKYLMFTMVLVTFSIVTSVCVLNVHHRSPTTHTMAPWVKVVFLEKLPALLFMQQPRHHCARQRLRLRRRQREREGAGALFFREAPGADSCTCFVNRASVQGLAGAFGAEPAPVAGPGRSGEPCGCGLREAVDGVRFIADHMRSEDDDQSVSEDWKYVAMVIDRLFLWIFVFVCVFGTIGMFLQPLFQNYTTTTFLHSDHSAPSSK
Neuronal acetylcholine receptor; alpha4/beta2, sequence (P43681 whole entry): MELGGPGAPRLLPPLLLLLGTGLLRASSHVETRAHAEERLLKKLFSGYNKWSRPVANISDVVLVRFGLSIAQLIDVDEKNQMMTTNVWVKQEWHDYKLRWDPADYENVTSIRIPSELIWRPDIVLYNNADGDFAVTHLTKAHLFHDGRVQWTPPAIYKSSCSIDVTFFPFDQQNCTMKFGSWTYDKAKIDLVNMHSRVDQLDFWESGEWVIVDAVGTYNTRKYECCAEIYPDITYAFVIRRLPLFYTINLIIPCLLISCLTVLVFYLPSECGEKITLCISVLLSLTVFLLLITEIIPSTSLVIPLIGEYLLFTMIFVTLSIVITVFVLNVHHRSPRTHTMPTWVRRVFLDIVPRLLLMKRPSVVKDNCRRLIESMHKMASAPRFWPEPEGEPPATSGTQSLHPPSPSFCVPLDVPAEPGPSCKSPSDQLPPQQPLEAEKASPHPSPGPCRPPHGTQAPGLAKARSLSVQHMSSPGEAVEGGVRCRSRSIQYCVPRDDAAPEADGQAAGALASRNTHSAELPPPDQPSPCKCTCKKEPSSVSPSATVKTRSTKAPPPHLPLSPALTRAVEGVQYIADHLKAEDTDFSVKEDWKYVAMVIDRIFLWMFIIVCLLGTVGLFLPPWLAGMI

Going from `CNCC#Cc1cccnc1` to `CNC/C=C/c1cccnc1`, the Ki rises from 2290 nM to ~6000 nM (2.6-fold). The first binds more tightly here.

In the case of `CNCC/C=C/c1cccnc1` [RIVANICLINE], the Ki is reported as 25 nM.

Biological target: Neuronal acetylcholine receptor alpha4/beta2 (Rattus norvegicus)
Experiment: Binding affinity towards nicotinic acetylcholine receptor alpha4-beta2 from rat brain homogenates

First: CN(C)CCOc1cccnc1
Second: CNCCOc1cccnc1
The Ki of the first is 1.7-fold lower: 21 nM for the first, 35 nM for the second.

First: CN(C)Cc1cccnc1
Second: CCN(C)Cc1cccnc1
The Ki of the first is 19-fold higher: 540 nM for the first, 28 nM for the second. The second binds more tightly here.

First: CNCCC#Cc1ccc(Cl)nc1
Second: CNCCC#Cc1ccc(OC)nc1
The Ki of the first is lower: 154 nM for the first, > 10000 nM for the second.

First: C[N+](C)(C)CCOc1cccnc1
Second: C[N+](C)(C)Cc1cccnc1
The Ki of the first is 220-fold lower: 0.5 nM for the first, 110 nM for the second. The first binds more tightly here.

`C[N+](C)(C)CCC#Cc1cccnc1` and `CN(C)CCC#Cc1cccnc1` are within 1.5-fold of each other in Ki: 470 nM for the first, 510 nM for the second.

Compared with `C(#Cc1cccnc1)CCN1CCCC1`, `c1cncc(OCCN2CCCC2)c1` is lower in Ki: > 10000 nM for the first, 212 nM for the second.

First: CNCc1cccnc1
Second: c1cncc(CN2CCCC2)c1
The Ki of the first is higher: > 10000 nM for the first, 30 nM for the second.
